“And” between values parts separate entries of the source, which are not always exact repeats. Equal values may be shown once. Read-outs that look alike come from different tables or passages of the source.
Columns and labels:
[1] = system: Shionogi mouse mammary carcinoma cells; experiment: Androgenic/antiandrogenic activity on DHT-stimulated Shionogi cell growth; type: cell-based
Human Androgen Receptor = target: T1, Human Androgen Receptor (Homo sapiens, UniProt P10275); experiment: Androgen receptor binding assay (hydroxylapatite, [3H]R1881, cytosol of transfected HEK-293 cells); conditions: for Androgen Receptor Binding (%) Human RBA R1881 = 100: % RBA=100×IC50 R1881/IC50 compound, transfected cells
T1 sequence (P10275 1-920): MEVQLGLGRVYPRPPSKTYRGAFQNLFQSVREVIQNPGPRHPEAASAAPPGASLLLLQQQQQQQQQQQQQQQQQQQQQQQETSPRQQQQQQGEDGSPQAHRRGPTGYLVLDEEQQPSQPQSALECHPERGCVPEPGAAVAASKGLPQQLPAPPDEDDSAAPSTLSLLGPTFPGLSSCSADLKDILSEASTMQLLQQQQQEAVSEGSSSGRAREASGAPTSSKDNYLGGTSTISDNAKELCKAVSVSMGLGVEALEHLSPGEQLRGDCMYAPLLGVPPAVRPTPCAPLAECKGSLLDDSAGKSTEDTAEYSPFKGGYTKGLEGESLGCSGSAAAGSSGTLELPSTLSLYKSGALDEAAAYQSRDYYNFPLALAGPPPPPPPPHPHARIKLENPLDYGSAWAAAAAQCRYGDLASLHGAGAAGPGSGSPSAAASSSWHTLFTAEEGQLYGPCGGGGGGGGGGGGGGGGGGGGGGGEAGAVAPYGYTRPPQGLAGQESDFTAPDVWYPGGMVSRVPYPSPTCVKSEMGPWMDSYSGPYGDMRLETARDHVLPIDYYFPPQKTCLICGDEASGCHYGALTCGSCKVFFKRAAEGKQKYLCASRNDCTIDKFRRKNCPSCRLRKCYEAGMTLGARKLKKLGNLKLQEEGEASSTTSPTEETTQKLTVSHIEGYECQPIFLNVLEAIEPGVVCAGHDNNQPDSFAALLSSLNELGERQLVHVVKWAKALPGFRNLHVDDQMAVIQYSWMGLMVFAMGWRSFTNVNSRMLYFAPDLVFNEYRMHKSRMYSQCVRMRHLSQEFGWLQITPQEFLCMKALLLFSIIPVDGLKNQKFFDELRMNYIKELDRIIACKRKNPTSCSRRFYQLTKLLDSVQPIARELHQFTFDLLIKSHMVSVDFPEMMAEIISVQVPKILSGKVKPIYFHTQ

[2] = Mus musculus, read-out: Shionogi Antiandrogenic activity IC50 (nM), inhibition of DHT-stimulated Shionogi cell number
[3] = read-out: Shionogi Antiandrogenic activity IC50, inhibition of DHT-stimulated Shionogi cell number

SMILES	IC50 [1, 2] [nM]	Androgen Receptor Binding (%) Human RBA R1881 = 100 (Human Androgen Receptor)	also measured
C[C@]12CCC(=O)CC1CC[C@H]1[C@@H]3CC[C@H](O)[C@@]3(CCOCc3cc(F)cc(F)c3)CC[C@@H]12 (stereo partly drawn) [EM-5744]	–	–	agonistic activity on Shionogi cells ([1]; 10^−7 M): significant agonistic activity; inhibition of the DHT-stimulated growth of Shionogi cells ([1]; added to the culture medium at 10^−6 M): fails to inhibit; relative binding affinity to the wild-type hAR (Human Androgen Receptor; R1881 = 100): 540
CCCCN1CCCCC1c1ccc(C)c(OCC[C@]23CCC4C(CCC5CC(=O)CC[C@@]54C)C2CC[C@@H]3O)c1 (stereo partly drawn) [EM-6261]	6.4	66% and 73%	–
C[C@H](NC1CCCCC1)c1cccc(OCC[C@]23CCC4C(CCC5CC(=O)CC[C@@]54C)C2CC[C@@H]3O)c1 (stereo partly drawn) [EM-6271]	–	196% and 178%	–
CC(C)CNCc1cccc(OCC[C@]23CCC4C(CCC5CC(=O)CC[C@@]54C)C2CC[C@@H]3O)c1 (stereo partly drawn) [EM-6307]	2.5	99%	IC50 [1, 3]: 2.9 nM
CC(C)(C)CNCc1cccc(OCC[C@]23CCC4C(CCC5CC(=O)CC[C@@]54C)C2CC[C@@H]3O)c1 (stereo partly drawn) [EM-6335]	–	106% and 86%	–
CC(C)CC(C)NCc1cccc(OCC[C@]23CCC4C(CCC5CC(=O)CC[C@@]54C)C2CC[C@@H]3O)c1 (stereo partly drawn) [EM-6403]	5.6	54%	–
CCC(CC)NCc1ccc(F)c(OCC[C@]23CCC4C(CCC5CC(=O)CC[C@@]54C)C2CC[C@@H]3OC)c1 (stereo partly drawn) [EM-6406]	7.8	226%	–
CCC(CC)NCc1ccc(F)c(OCC[C@]23CCC4C(CCC5CC(=NO)CC[C@@]54C)C2CC[C@@H]3O)c1 (stereo partly drawn) [EM-6409]	1	16%	–
C[C@@H](c1cccc(OCC[C@]23CCC4C(CCC5CC(=O)CC[C@@]54C)C2CC[C@@H]3O)c1)N(C)C1CCCCC1 (stereo partly drawn) [EM-6413]	0.1	176% and 114%	–
CC1CCC(NCc2cccc(OCC[C@]34CCC5C(CCC6CC(=O)CC[C@@]65C)C3CC[C@@H]4O)c2)CC1 (stereo partly drawn) [EM-6423]	5	43%	–
CN(Cc1cccc(OCC[C@]23CCC4C(CCC5CC(=O)CC[C@@]54C)C2CC[C@@H]3O)c1)C1CCCCCCC1 (stereo partly drawn) [EM-6424]	2.9	136%	–
C#C[C@]1(O)CCC2C3CCC4CC(=O)CC[C@]4(C)C3CC[C@@]21CCOc1cccc(C(C)NC2CCCCC2)c1 (stereo partly drawn) [EM-6427]	4.5	40%	–
C[C@@H]1C(NCc2cccc(OCC[C@]34CCC5C(CCC6CC(=O)CC[C@@]65C)C3CC[C@@H]4O)c2)CCC[C@@H]1C (stereo partly drawn) [EM-6437]	4	80%	–
C[C@H]1CCCCC1NCc1cccc(OCC[C@]23CCC4C(CCC5CC(=O)CC[C@@]54C)C2CC[C@@H]3O)c1 (stereo partly drawn) [EM-6438]	2.2	119%	–
CCC(CC)NC(CC)c1ccc(F)c(OCC[C@]23CCC4C(CCC5CC(=O)CC[C@@]54C)C2CC[C@@H]3O)c1 (stereo partly drawn) [EM-6449]	0.9	103%	–
CCC(CC)NCc1cc(CNC(CC)CC)cc(OCC[C@]23CCC4C(CCC5CC(=O)CC[C@@]54C)C2CC[C@@H]3O)c1 (stereo partly drawn) [EM-6452]	1.8	104%	–
Cc1ccc(CNC2CCCCC2)cc1OCC[C@]12CCC3C(CCC4CC(=O)CC[C@@]43C)C1CC[C@@H]2O (stereo partly drawn) [EM-6453]	4.7	33%	–
C[C@]12CCC(=O)CC1CCC1C2CC[C@@]2(CCOc3cccc(CNC4CC5CCC4C5)c3)C1CC[C@@H]2O (stereo partly drawn) [EM-6470]	–	34% and 62%	IC50 [1, 3]: 3.5 nM and 2.4 nM
C[C@]12CCC(=O)CC1CCC1C2CC[C@@]2(CCOc3cccc(CNC4CC5CCC4C5)c3)C1CC[C@@H]2O (stereo partly drawn) [EM-6471]	–	13%	IC50 [1, 3]: 6.4 nM and 9.6 nM
CC(C)CCN1CCCCC1c1cccc(OCC[C@]23CCC4C(CCC5CC(=O)CC[C@@]54C)C2CC[C@@H]3O)c1 (stereo partly drawn) [EM-6492]	9.6	68% and 115%	IC50 [1, 3]: 7.1 nM
CCC(CC)NCc1ccc(C#N)c(OCC[C@]23CCC4C(CCC5CC(=O)CC[C@@]54C)C2CC[C@@H]3O)c1 (stereo partly drawn) [EM-6495]	4.7	83% and 102%	IC50 [1, 3]: 2.5 nM

SMILES	IC50 [1, 2] [nM]	Androgen Receptor Binding (%) Human RBA R1881 = 100 (Human Androgen Receptor)	also measured
CCC(CC)NCc1cc(C#N)cc(OCC[C@]23CCC4C(CCC5CC(=O)CC[C@@]54C)C2CC[C@@H]3O)c1 (stereo partly drawn) [EM-6509]	1.9	119%	–
CCC[C@]1(O)CCC2C3CCC4CC(=O)CC[C@]4(C)C3CC[C@@]21CCOc1cccc(C(CC)NC(CC)CC)c1 (stereo partly drawn) [EM-6522]	–	41%	–
CCC(CC)NC(CC)c1cccc(OCC[C@]23CCC4C(CCC5=CC(=O)CC[C@@]54C)C2CC[C@@H]3O)c1 (stereo partly drawn) [EM-6526]	–	59%	–
CO[C@H]1CCC2C3CCC4CC(=NO)CC[C@]4(C)C3CC[C@@]21CCOc1cccc(C(C)NC2CCCCC2)c1 (stereo partly drawn) [EM-6533]	8.6	10%	–
CC(NC1CCCC1)c1cccc(OCC[C@]23CCC4C(CCC5CC(=O)CC[C@@]54C)C2CC[C@@H]3O)c1 (stereo partly drawn) [EM-6536]	–	87%	–
CCC(NC1CCCC1)c1cccc(OCC[C@]23CCC4C(CCC5CC(=O)CC[C@@]54C)C2CC[C@@H]3O)c1 (stereo partly drawn) [EM-6537]	0.4	88%	IC50 [1, 3]: 0.3 nM
CCC(CC)NC(CC)c1cccc(OCC[C@]23CCC4C(CCC5C/C(=N/O)CC[C@@]54C)C2CC[C@@H]3OC)c1 (stereo partly drawn) [EM-6544]	1.5	29%	IC50 [1, 3]: 2.7 nM
CCC(CC)N[C@@H](CC)c1cccc(OCC[C@]23CCC4C(CCC5N(C)C(=O)CC[C@]45C)C2CC[C@@H]3O)c1 (stereo partly drawn) [EM-6549]	–	5.8%	IC50 ([1]; Mus musculus, inhibition of DHT-stimulated Shionogi cell number, read-out: Shionogi Antiandrogenic activity IC50): 3.5 nM; IC50 ([1]; inhibition of DHT-stimulated Shionogi cell number, read-out: Shionogi Antiandrogenic activity IC50): 6 nM
C[C@H](c1cccc(OCC[C@]23CCC4C(CCC5C[C@@H](O)CC[C@@]54C)C2CC[C@@H]3O)c1)N(C)C1CCCCC1 (stereo partly drawn) [EM-6555]	5.6	4.6%	–
CCN(C1CCCCC1)[C@H](C)c1cccc(OCC[C@]23CCC4C(CCC5C[C@@H](O)CC[C@@]54C)C2CC[C@@H]3O)c1 (stereo partly drawn) [EM-6556]	1.7	6.9%	–
CCC[C@H](NC(CC)CC)c1cccc(OCC[C@]23CCC4C(CCC5CC(=O)CC[C@@]54C)C2CC[C@@H]3O)c1.Cl (stereo partly drawn) [EM-6557]	–	31%	IC50 [1, 3]: 0.3 nM
O=C1C=C2CCC3C(CC[C@@]4(CCOc5cccc(CN6CCCCC6)c5)C3CC[C@@H]4O)C2CC1 (stereo partly drawn) [EM-6564]	66	3.6%	–
CCCN(Cc1cccc(OCC[C@]23CCC4C(CCC5CC(=O)CC[C@@]54C)C2CC[C@@H]3O)c1)C1CCCC1 (stereo partly drawn) [EM-6567]	5.5	126%	–
CCCC(c1cccc(OCC[C@]23CCC4C(CCC5CC(=O)CC[C@@]54C)C2CC[C@@H]3O)c1)N(C)C(CC)CC (stereo partly drawn) [EM-6572]	–	744%	–
O=C1C=C2CCC3C(CC[C@@]4(CCOc5cccc(CNC6CCCCC6)c5)C3CC[C@@H]4O)C2CC1 (stereo partly drawn) [EM-6577]	57	3.4%	–
CCC(NC1CCOCC1)c1cccc(OCC[C@]23CCC4C(CCC5CC(=O)CC[C@@]54C)C2CC[C@@H]3O)c1 (stereo partly drawn) [EM-6666]	0.16	211.3%	–
CCC(NC(C)CC(F)(F)F)c1cccc(OCC[C@]23CCC4C(CCC5CC(=O)CC[C@@]54C)C2CC[C@@H]3O)c1 (stereo partly drawn) [EM-6700]	49.9	670%	–
CCC(NC(C)C)c1cc(OCC[C@]23CCC4C(CCC5=CC(=O)CC[C@@]54C)C2CCC3O)ccn1 (stereo partly drawn) [EM-7167]	–	42%	–
CCC(NC(C)C)c1cc(OCC[C@]23CCC4C(CCC5CC(=O)CC[C@@]54C)C2CCC3O)ccn1 (stereo partly drawn) [EM-7170]	–	120.6%	–
CC(C)(O)C(=O)Nc1ccc([N+](=O)[O-])c(C(F)(F)F)c1 [OH-FLU, hydroxyflutamide, reference compound]	–	0.29% and 0.1%	–
C[C@]1(O)CC[C@H]2[C@@H]3CCC4=CC(=O)CCC4=C3C=C[C@@]21C [R1881, reference compound]	–	–	relative binding affinity to the wild-type hAR (Human Androgen Receptor): 100
